By EC50 is commonly meant the concentration needed to bring the measured effect to its halfway point.

SMILES strings stand for the structures. Where a name gives a salt, the structure may show the parent alone.

The experiment has as its target T1, human IL-17AA (Homo sapiens, UniProt Q16552).
T1 construct: host or cells: HEK (human embryonic kidney) cells
T1 sequence (Q16552 24-155) 1: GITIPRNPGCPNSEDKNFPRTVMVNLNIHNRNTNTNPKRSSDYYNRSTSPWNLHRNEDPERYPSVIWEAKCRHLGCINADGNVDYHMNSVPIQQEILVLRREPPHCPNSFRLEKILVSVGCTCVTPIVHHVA
T1 sequence (Q16552 24-155) 2: T1 sequence (Q16552 24-155) 1
Kind of experiment: IL-8 release assay in human epithelial keratinocytes adult (HEKa). Particulars: 3 ng/ml human IL-17AA + 10 ng/ml human TNFalpha, 68-72 h, IL-8 by HTRF, read-out: Rel EC50 L-8 release assay. The experiment is classed as cell-based. Summed up:
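IL-8 secretion, quantified by HTRF (665/620 nm) as percent of controls, served as the readout after 68–72 h culture of HEKa cells with compound plus IL-17AA (3 ng/ml final) and TNF-alpha (10 ng/ml final). Four-parameter logistic curves gave relative IC50 and Emax.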
Background: In TR-FRET formats the signal depends on donor and acceptor labels being close together.
Consider `CN1CCOC[C@@H]1c1cccc(-c2ccc(Cl)c(C[C@H](NC(=O)c3ccnn3C)C(=O)Nc3ccc(-c4cncn4C)cc3)c2)c1` [Example 217, N-[(1S)-1-[[2-chloro-5-[3-[(3S)-4-methylmorpholin-3-yl]phenyl]phenyl]methyl]-2-[4-(3-methylimidazol-4-yl)anilino]-2-oxo-ethyl]-2-methyl-pyrazole-3-carboxamide], for which the EC50 fell in the range of 100 to 1000 nM. The same measure for `CN1CCOC[C@H]1c1cccc(-c2ccc(Cl)c(C[C@H](NC(=O)c3ccnn3C)C(=O)Nc3ccc(-c4cncn4C)cc3)c2)c1` [Example 218, N-[(1S)-1-[[2-chloro-5-[3-[(3R)-4-methylmorpholin-3-yl]phenyl]phenyl]methyl]-2-[4-(3-methylimidazol-4-yl)anilino]-2-oxo-ethyl]-2-methyl-pyrazole-3-carboxamide]: 100 to 1000 nM.

Turning to `Cn1cncc1-c1ccc(NC(=O)[C@H](Cc2cc(-c3cccc(C4CNCCO4)c3)ccc2Cl)NC(=O)c2ccnn2C)cc1` (stereo partly drawn) [Example 219, N-[(1S)-1-[[2-chloro-5-(3-morpholin-2-ylphenyl)phenyl]methyl]-2-[4-(3-methylimidazol-4-yl)anilino]-2-oxo-ethyl]-2-methyl-pyrazole-3-carboxamide hydrochloride], the EC50 lay in the range of 100 to 1000 nM. The value for `Cn1cncc1-c1ccc(NC(=O)[C@H](Cc2cc(-c3cccc([C@H]4CNCCO4)c3)ccc2Cl)NC(=O)c2ccnn2C)cc1` [Example 220, N-[(1S)-1-[[2-chloro-5-[3-[(2S)-morpholin-2-yl]phenyl]phenyl]methyl]-2-[4-(3-methylimidazol-4-yl)anilino]-2-oxo-ethyl]-2-methyl-pyrazole-3-carboxamide] was 100 to 1000 nM.

For `Cn1cncc1-c1ccc(NC(=O)[C@H](Cc2cc(-c3cccc([C@@H]4CNCCO4)c3)ccc2Cl)NC(=O)c2ccnn2C)cc1` [Example 221, N-[(1S)-1-[[2-chloro-5-[3-[(2R)-morpholin-2-yl]phenyl]phenyl]methyl]-2-[4-(3-methylimidazol-4-yl)anilino]-2-oxo-ethyl]-2-methyl-pyrazole-3-carboxamide], the EC50 is 100 to 1000 nM. As for `Cc1n[nH]c(C)c1-c1ccc(NC(=O)[C@H](Cc2cc(-c3ccnc(N4C[C@H]5C[C@@H]4CO5)c3)ccc2Cl)NC(=O)C2(F)CC2)cc1` [Example 222, N-[(1S)-1-[[2-chloro-5-[2-[(1R,4R)-2-oxa-5-azabicyclo[2.2.1]heptan-5-yl]-4-pyridyl]phenyl]methyl]-2-[4-(3,5-dimethyl-1H-pyrazol-4-yl)anilino]-2-oxo-ethyl]-1-fluoro-cyclopropanecarboxamide], the EC50 is < 100 nM. As for `Cc1n[nH]c(C)c1-c1ccc(NC(=O)[C@H](Cc2cc(-c3ccnc(N4C[C@@H]5C[C@H]4CN5)c3)ccc2Cl)NC(=O)C2(F)CC2)cc1` [Example 223, N-[(1S)-1-[[2-chloro-5-[2-[(1S,4S)-2,5-diazabicyclo[2.2.1]heptan-2-yl]-4-pyridyl]phenyl]methyl]-2-[4-(3,5-dimethyl-1H-pyrazol-4-yl)anilino]-2-oxo-ethyl]-1-fluoro-cyclopropanecarboxamide], the half-maximal effective concentration (EC50) is < 100 nM. The same measure for `Cc1ncn(C)c1-c1ccc(NC(=O)[C@H](Cc2cc(-c3ccnc(N4CCOCC4)c3)ccc2Cl)NC(=O)C2(F)CC2)cc1` [Example 224, N-[(1S)-1-[[2-chloro-5-(2-morpholino-4-pyridyl)phenyl]methyl]-2-[4-(3,5-dimethylimidazol-4-yl)anilino]-2-oxo-ethyl]-1-fluoro-cyclopropanecarboxamide]: < 100 nM; for `Cc1n[nH]c(C)c1-c1ccc(NC(=O)[C@H](Cc2cc(-c3ccnc(N4CCOCC4)c3)ccc2Cl)NC(=O)C2(F)CC2)cc1` [Example 225, N-[(1S)-1-[[2-chloro-5-(2-morpholino-4-pyridyl)phenyl]methyl]-2-[4-(3,5-dimethyl-1H-pyrazol-4-yl)anilino]-2-oxo-ethyl]-1-fluoro-cyclopropanecarboxamide]: < 100 nM; for `Cc1n[nH]c(C)c1-c1ccc(NC(=O)[C@H](Cc2cc(-c3ccnn3C3CCC3)ccc2Cl)NC(=O)C2(F)CC2)cc1` [Example 226, N-[(1S)-1-[[2-chloro-5-(2-cyclobutylpyrazol-3-yl)phenyl]methyl]-2-[4-(3,5-dimethyl-1H-pyrazol-4-yl)anilino]-2-oxo-ethyl]-1-fluoro-cyclopropanecarboxamide]: 100 to 1000 nM. The same measure for `Cc1n[nH]c(C)c1-c1ccc(NC(=O)[C@H](Cc2cc(-c3cnn(C)c3C)ccc2Cl)NC(=O)C2(F)CC2)cc1` [Example 227, N-[(1S)-1-[[2-chloro-5-(1,5-dimethylpyrazol-4-yl)phenyl]methyl]-2-[4-(3,5-dimethyl-1H-pyrazol-4-yl)anilino]-2-oxo-ethyl]-1-fluoro-cyclopropanecarboxamide]: 100 to 1000 nM; for `Cc1n[nH]c(C)c1-c1ccc(NC(=O)[C@H](Cc2cc(-c3ccc(CN4C[C@H]5C[C@@H]4CO5)cc3)ccc2Cl)NC(=O)C2(F)CC2)cc1` [Example 228, N-[(1S)-1-[[2-chloro-5-[4-[[(1R,4R)-2-oxa-5-azabicyclo[2.2.1]heptan-5-yl]methyl]phenyl]phenyl]methyl]-2-[4-(3,5-dimethyl-1H-pyrazol-4-yl)anilino]-2-oxo-ethyl]-1-fluoro-cyclopropanecarboxamide]: 100 to 1000 nM; for `Cc1n[nH]c(C)c1-c1ccc(NC(=O)[C@H](Cc2cc(-c3ccc(CN4C[C@@H]5C[C@H]4CN5)cc3)ccc2Cl)NC(=O)C2(F)CC2)cc1` [Example 229, N-[(1S)-1-[[2-chloro-5-[4-[[(1S,4S)-2,5-diazabicyclo[2.2.1]heptan-2-yl]methyl]phenyl]phenyl]methyl]-2-[4-(3,5-dimethyl-1H-pyrazol-4-yl)anilino]-2-oxo-ethyl]-1-fluoro-cyclopropanecarboxamide]: 100 to 1000 nM. For the molecule `CC(C)n1cc(-c2ccc(Cl)c(C[C@H](NC(=O)C(C)(C)F)C(=O)Nc3ccc(-c4nncn4C)cc3)c2)ccc1=O` [Example 282, N-[(1S)-1-[[2-chloro-5-(1-isopropyl-6-oxo-3-pyridyl)phenyl]methyl]-2-[4-(4-methyl-1,2,4-triazol-3-yl)anilino]-2-oxo-ethyl]-2-fluoro-2-methyl-propanamide], the EC50 was > 1000 nM.

Consider `CC(C)n1cc(-c2ccc(Cl)c(C[C@H](NC(=O)C(C)(F)F)C(=O)Nc3ccc(-c4nncn4C)cc3)c2)ccc1=O` [Example 283, N-[(1S)-1-[[2-chloro-5-(1-isopropyl-6-oxo-3-pyridyl)phenyl]methyl]-2-[4-(4-methyl-1,2,4-triazol-3-yl)anilino]-2-oxo-ethyl]-2,2-difluoro-propanamide], for which the EC50 is > 1000 nM.

Take `CC(C)n1cc(-c2ccc(Cl)c(C[C@H](NC(=O)O[C@H](C)C(F)(F)F)C(=O)Nc3ccc(-c4nncn4C)cc3)c2)ccc1=O` [Example 286, [(1R)-2,2,2-trifluoro-1-methyl-ethyl] N-[(1S)-1-[[2-chloro-5-(1-isopropyl-6-oxo-3-pyridyl)phenyl]methyl]-2-[4-(4-methyl-1,2,4-triazol-3-yl)anilino]-2-oxo-ethyl]carbamate]: the EC50 was > 1000 nM.

Take `CC(C)n1cc(-c2ccc(Cl)c(C[C@H](NC(=O)[C@@H]3CC3(F)F)C(=O)Nc3ccc(-c4nncn4C)cc3)c2)ccc1=O` [Example 287, (1S)-N-[(1S)-1-[[2-chloro-5-(1-isopropyl-6-oxo-3-pyridyl)phenyl]methyl]-2-[4-(4-methyl-1,2,4-triazol-3-yl)anilino]-2-oxo-ethyl]-2,2-difluoro-cyclopropanecarboxamide]: the EC50 is > 1000 nM.

Values taken from US20220162191A1, “SMALL MOLECULE MODULATORS OF IL-17” (LEO PHARMA A/S, priority 2019, published 2022).
